This passage reports IC50 results from patent US9115127B2 (AMGEN INC., priority 2010, dated 2015).

Each structure is given as a SMILES string.

For the test, the target named is T1, wild-type human ALK (cytoplasmic domain, amino acids 1058-1620, N-terminal GST fusion) (Homo sapiens, UniProt Q9UM73).
T1 construct: The cytoplasmic domain (amino acids 1058-1620) of wild-type human ALK; GST (N); made in house; host or cells: SF9 insect cells
T1 sequence (Q9UM73 1058-1620): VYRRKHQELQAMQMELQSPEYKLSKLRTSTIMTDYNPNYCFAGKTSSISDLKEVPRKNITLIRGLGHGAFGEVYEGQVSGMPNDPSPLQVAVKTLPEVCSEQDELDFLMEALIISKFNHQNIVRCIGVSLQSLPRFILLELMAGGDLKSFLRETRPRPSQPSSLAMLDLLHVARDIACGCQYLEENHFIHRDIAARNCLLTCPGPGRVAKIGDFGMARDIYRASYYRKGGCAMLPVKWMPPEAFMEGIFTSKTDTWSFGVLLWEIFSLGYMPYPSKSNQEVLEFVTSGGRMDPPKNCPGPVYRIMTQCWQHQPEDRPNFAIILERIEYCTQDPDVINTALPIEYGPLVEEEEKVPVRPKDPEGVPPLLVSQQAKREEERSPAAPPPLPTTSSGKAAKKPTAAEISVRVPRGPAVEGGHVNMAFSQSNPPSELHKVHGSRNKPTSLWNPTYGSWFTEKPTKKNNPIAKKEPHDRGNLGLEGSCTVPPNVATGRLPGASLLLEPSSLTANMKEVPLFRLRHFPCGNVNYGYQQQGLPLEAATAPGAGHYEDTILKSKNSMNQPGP
In words: ALK Inhibition in Enzyme Assay (Lance TR-FRET kinase assay). The class given is biochemical. The method in brief: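 Purified enzyme phosphorylated a biotinylated peptide substrate for 90 minutes at room temperature. Reactions were stopped with 20 mM EDTA in 50 mM Tris (pH 7.5), 100 mM NaCl, 0.05% BSA, 0.1% Tween-20. Phosphopeptide was detected by TR-FRET with SA-APC and Eu-W1024 anti-phosphotyrosine antibody PT66, excitation 320 nm.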
(In general: TR-FRET usually uses a lanthanide donor and a delayed reading to cut background.)
In general, IC50 refers to the midpoint of a concentration-inhibition curve. For `CC(=O)[C@H]1CC[C@@H](n2/c(=N/C(=O)c3cccc(F)c3)[nH]c3ccc(CN4CCC(C(C)(C)O)CC4)cc32)CC1` [Example 71, (E)-N-(1-(cis-4-Acetylcyclohexyl)-6-((4-(2-hydroxypropan-2-yl)piperidin-1-yl)methyl)-1H-benzo[d]imidazol-2(3H)-ylidene)-3-fluorobenzamide], the IC50 is 100 to 1000 nM. Next, `CC(C)NC(C)[C@H]1CC[C@@H](n2/c(=N/C(=O)c3cccc(F)c3)[nH]c3ccc(CN4CCC(C(C)(C)O)CC4)cc32)CC1` (stereo partly drawn) [Example 72, (E)-3-Fluoro-N-(6-((4-(2-hydroxypropan-2-yl)piperidin-1-yl)methyl)-1-(cis-4-(1-(isopropylamino)ethyl)cyclohexyl)-1H-benzo[d]imidazol-2(3H)-ylidene)benzamide]: less than 50 nM; `Cc1n[nH]c([C@H]2CC[C@@H](n3/c(=N/C(=O)c4cccc(F)c4)[nH]c4ccc(CO)cc43)CC2)n1` [Example 73, (E)-3-Fluoro-N-(6-(hydroxymethyl)-1-(cis-4-(3-methyl-1H-1,2,4-triazol-5-yl)cyclohexyl)-1H-benzo[d]imidazol-2(3H)-ylidene)benzamide]: 100 to 1000 nM. `Cc1n[nH]c([C@H]2CC[C@@H](n3/c(=N/C(=O)c4cccc(F)c4)[nH]c4ccc(CN5CCC(C(C)(C)O)CC5)cc43)CC2)n1` [Example 74, (E)-3-Fluoro-N-(6-((4-(2-hydroxypropan-2-yl)piperidin-1-yl)methyl)-1-(cis-4-(3-methyl-1H-1,2,4-triazol-5-yl)cyclohexyl)-1H-benzo[d]imidazol-2(3H)-ylidene)benzamide] displayed an IC50 of less than 50 nM. `CNCC(=O)N1CCC(n2/c(=N/C(=O)c3ccccc3)[nH]c3cnc(OCCN4CCCCC4)cc32)CC1` [Example 75, (E)-N-(1-(1-(2-(Methylamino)acetyl)piperidin-4-yl)-6-(2-(piperidin-1-yl)ethoxy)-1H-imidazo[4,5-c]pyridin-2(3H)-ylidene)benzamide] returned an IC50 of 100 to 1000 nM. In the case of `CN(CC(=O)N1CCC(n2/c(=N/C(=O)c3ccccc3)[nH]c3cnc(OCCN4CCCCC4)cc32)CC1)C(=O)OC(C)(C)C` [Example 76, (E)-tert-Butyl 2-(4-(2-(benzoylimino)-6-(2-(piperidin-1-yl)ethoxy)-2,3-dihydro-1H-imidazo[4,5-c]pyridin-1-yl)piperidin-1-yl)-2-oxoethyl(methyl)carbamate], the IC50 was 1000 to 5000 nM. Take `CCOC(=O)[C@H]1CC[C@@H](n2/c(=N/C(=O)c3cccc(F)c3)[nH]c3cnc(OCCO)cc32)CC1` [Example 77, cis-Ethyl 4-((E)-2-(3-fluorobenzoylimino)-6-(2-hydroxyethoxy)-2,3-dihydro-1H-imidazo[4,5-c]pyridin-1-yl)cyclohexanecarboxylate]: the IC50 is less than 50 nM. The value for `CCOC(=O)[C@H]1CC[C@@H](n2/c(=N/C(=O)c3cccc(F)c3)[nH]c3cnc(OCCN4CCC(C(C)(C)O)CC4)cc32)CC1` [Example 78, cis-Ethyl 4-((E)-2-(3-fluorobenzoylimino)-6-(2-(4-(2-hydroxypropan-2-yl)piperidin-1-yl)ethoxy)-2,3-dihydro-1H-imidazo[4,5-c]pyridin-1-yl)cyclohexanecarboxylate] was less than 50 nM; that for `CC(C)(O)C1CCN(CCOc2cc3c(cn2)[nH]/c(=N\C(=O)c2cccc(F)c2)n3[C@H]2CC[C@@H](C(=O)O)CC2)CC1` [Example 79, cis-4-((E)-2-(3-Fluorobenzoylimino)-6-(2-(4-(2-hydroxypropan-2-yl)piperidin-1-yl)ethoxy)-2,3-dihydro-1H-imidazo[4,5-c]pyridin-1-yl)cyclohexanecarboxylic acid] was 1000 to 5000 nM; that for `CC(C)(O)C1CCN(CCOc2cc3c(cn2)[nH]/c(=N\C(=O)c2cccc(F)c2)n3[C@H]2CC[C@@H](C(=O)N3CC(F)(F)C3)CC2)CC1` [Example 80, (E)-N-(1-(cis-4-(3,3-Difluoroazetidine-1-carbonyl)cyclohexyl)-6-(2-(4-(2-hydroxypropan-2-yl)piperidin-1-yl)ethoxy)-1H-imidazo[4,5-c]pyridin-2(3H)-ylidene)-3-fluorobenzamide] was less than 50 nM.
